Blank lines part the entries; values can stand above or below the molecule they belong to. Bridges are numbered along the chain shown (N, C = ends). [ ]: non-standard residue; d: D form. The star is where a group is joined. N4 = 6-carboxy-1,4,8,11-tetraazaundecane chelator, NCCNCC(CNCCN)C(=O)*; dPhe(4-NHCONH2) = NC(=O)Nc1ccc(C[C@@H](N)C(=O)O)cc1; Phe(4-Cl) = N[C@@H](Cc1ccc(Cl)cc1)C(=O)O
Legend:
[1] = biological target: T1, HEK-SST2 cells (human SST2 receptor) (Homo sapiens, UniProt P30874); test: Internalization and cell-surface binding in HEK-SST2 cells; type: cell-based; details: 37 °C
T1 construct: expressed in transfected cells; host or cells: HEK293 (HEK-SST2), provided by Prof; Stefan Schulz, Jena University Hospital

[2] = in vivo; details: female, mouse, 20 pmol, total radioactivity
[3] = type: physicochemical; details: pH 7.4
Experimental: Determination of the distribution coefficient (log D) was performed by the shake-flask method in 1:1 mixture of octanol/Phosphate buffered saline (PBS). Then, 50 µL of [^99mTc]Tc-TECANT-1 or [^99mTc]Tc-TECANT-2 solution was diluted up to 500 µL with PBS (pH 7.4; 8 mM phosphate). Next, 20 µL of this solution was added to six eppendorf tubes, each containing 500 µL octanol and 480 µL PBS. The samples were vortexed for 15 min at 1400 rpm followed by centrifugation for 2 min at 4500 rpm. Aliquots of 100 µL from each phase were taken and measured in a γ-counter. The log D was calculated as the average of the logarithmic values (n = 3, six technical replicates) of the ratio between the radioactivity in the octanol and the PBS phase.

[4] = design: species or system human
Excerpt: To account for various possible locations of the tumour, we used two S-values. One was the value for the liver and is representative for the liver lesions. Other was the “average abdominal S-value”, which was the average S-value for the following organs: stomach, liver, gallbladder, spleen, pancreas, small intestine, kidneys, large intestine, and adrenal glands. Estimated dose to various organs, average total body dose and effective dose are summarized in Table 3 for both radiotracers and two typical tumour locations.
Dosimetric calculations were based on the biodistribution of [^99mTc]Tc-TECANT-1 and [^99mTc]Tc-TECANT-2 (Table 3). […] Percent of injected activity per organ in a human model was evaluated according to the animal data extrapolation model:(2) (%IA/organ)human=[(%IA/g)mouse×Mmouse(g)]×(m(g)/M(kg))human
Here m is the organ mass and M is the total body weight of mouse or human. Average total weight of the mouse was measured, while human phantom has the total weight of 73 kg. The %IA/g and %IA/organ is the percentage of the injected activity concentration (i.e., per gram of tissue) and per organ, respectively. For the tumour, we assumed that the percent of injected activity uptake into the tumour is the same for mouse and human.
Subsequently, percentage of the injected activity per organ was folded with the decay curve of ^99mTc and interpolated with the exponential function. The interpolation function was used to estimate initial %ID/organ and the time-integrated activity concentration (TIAC). Absorbed dose per injected activity for various organs was calculated with the TIAC factors and S-values for a standard person from the OpenDose project. Effective dose was evaluated according to the ICRP 103 recommendations.
We also assumed that the remaining activity from the organs and tumour ends up in the bladder.

[5] = biological target: T1, HEK-SST2 cells (human SST2 receptor); test: Dissociation of cell-surface bound radiotracer with or without competitor; type: cell-based
[6] = biological target: T2, T7-epitope tagged human SST2 receptor (somatostatin receptor subtype 2) (human, UniProt P30874 1-369); test: radioligand binding; dissociation with competitor: as without, but medium with 2.5 µM of the respective unlabelled TECANT analogue; details: one partner purified
T2 construct: somatostatin receptor subtype 2 (SST2), human, expressed in HEK293 cells; also called HEK-SST2 (the cells that express it); source: HEK293 cell line expressing it (HEK-SST2), provided by Professor Stefan Schulz; on intact cells

[7] = biological target: T2, T7-epitope tagged human SST2 receptor …; test: radioligand binding; dissociation without competitor: radiotracer 0.25 nM bound to HEK-SST2 cells for 2 h at 4 °C, washed, then medium at 37 °C replaced at 10, 20, 30, 60, 120 and 240 min; cell-associated radiotracer left; details: one partner purified
[8] = biological target: T2, T7-epitope tagged human SST2 receptor …; test: radioligand binding; competition on 5 x 10^5 HEK-SST2 cells in 96-well filter plates; radioligand [^177Lu]Lu-DOTA-TATE (1 nM); competitor 0.004 to 4000 nM; 2 h at 4 °C; TRIS buffer; apparent IC50; details: one partner purified
[9] = athymic nude-Foxn1^nu/Foxn1^+, Biodistribution Heart
[10] = athymic nude-Foxn1^nu/Foxn1^+, Biodistribution Liver
[11] = athymic nude-Foxn1^nu/Foxn1^+, Biodistribution Lung
[12] = athymic nude-Foxn1^nu/Foxn1^+, Biodistribution Pancreas
[13] = athymic nude-Foxn1^nu/Foxn1^+, Biodistribution Spleen
[14] = athymic nude-Foxn1nu/Foxn1+, Biodistribution Adrenals
[15] = athymic nude-Foxn1nu/Foxn1+, Biodistribution Blood
[16] = athymic nude-Foxn1nu/Foxn1+, Biodistribution Bone
[17] = athymic nude-Foxn1nu/Foxn1+, Biodistribution HEK-SST2 (+) tumour uptake
[18] = athymic nude-Foxn1nu/Foxn1+, Biodistribution Intestine
[19] = athymic nude-Foxn1nu/Foxn1+, Biodistribution Kidneys
[20] = athymic nude-Foxn1nu/Foxn1+, Biodistribution Muscle
[21] = athymic nude-Foxn1nu/Foxn1+, Biodistribution Pituitary
[22] = athymic nude-Foxn1nu/Foxn1+, Biodistribution Stomach

T1 sequence (P30874 whole entry): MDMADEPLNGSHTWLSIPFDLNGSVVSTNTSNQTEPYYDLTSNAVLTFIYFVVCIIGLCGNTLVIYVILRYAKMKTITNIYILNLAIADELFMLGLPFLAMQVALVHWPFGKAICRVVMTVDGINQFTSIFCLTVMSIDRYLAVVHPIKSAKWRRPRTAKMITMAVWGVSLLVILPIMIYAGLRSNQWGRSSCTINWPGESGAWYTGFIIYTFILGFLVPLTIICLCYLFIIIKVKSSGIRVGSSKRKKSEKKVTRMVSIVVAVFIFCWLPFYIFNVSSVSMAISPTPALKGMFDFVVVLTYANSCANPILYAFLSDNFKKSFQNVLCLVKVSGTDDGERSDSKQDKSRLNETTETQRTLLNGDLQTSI
T2 sequence (P30874 whole entry): as above

B1: [^99mTc]Tc-TECANT-1 (peptide)
peptide: N4-[Phe(4-Cl)][dC]Y[dPhe(4-NHCONH2)]KTC[dY]-NH2
modifications: disulfide 2-7; also: N4 chelator holds 99mTc (dioxo-99mTc(V) complex)
notes: as TECANT-1: N4-p-Cl-Phe-cyclo(D-Cys-Tyr-D-Aph(Cbm)-Lys-Thr-Cys)-D-Tyr-NH2; F at 1 stands for p-Cl-Phe and F at 4 for D-Aph(Cbm); source: synthetic peptide (piChem), labelled with ^99mTc, used without further purification
estimated half-life of dissociation [6]: 19 min
estimated half-life of dissociation [7]: 98 min

B2: TECANT-1 (N4-p-Cl-Phe-cyclo(D-Cys-Tyr-D-Aph(Cbm)-Lys-Thr-Cys)-D-Tyr-NH2) (peptide)
peptide: N4-[Phe(4-Cl)][dC]Y[dPhe(4-NHCONH2)]KTC[dY]-NH2
modifications: disulfide 2-7
SMILES: C[C@@H](O)[C@@H]1NC(=O)[C@H](CCCCN)NC(=O)[C@@H](Cc2ccc(NC(N)=O)cc2)NC(=O)[C@H](Cc2ccc(O)cc2)NC(=O)[C@H](NC(=O)[C@H](Cc2ccc(Cl)cc2)NC(=O)C(CNCCN)CNCCN)CSSC[C@@H](C(=O)N[C@H](Cc2ccc(O)cc2)C(N)=O)NC1=O
notes: printed in three-letter code: N4-p-Cl-Phe-cyclo(D-Cys-Tyr-D-Aph(Cbm)-Lys-Thr-Cys)-D-Tyr-NH2; F at 1 stands for p-Cl-Phe and F at 4 for D-Aph(Cbm), both phenylalanine derivatives; SST2 antagonist based on LM3; non-metallated peptide conjugate; also called N4-LM3; source: synthetic peptide, custom made by piChem
IC50 [8]: 4.14 ± 0.83 nM

B4: ^natRe-TECANT-2 (peptide)
peptide: N4-[Phe(4-Cl)][dC]Y[dW]KTC[dY]-NH2
modifications: disulfide 2-7; also: N4 chelator holds natural rhenium
notes: as TECANT-2: N4-p-Cl-Phe-cyclo(D-Cys-Tyr-D-Trp-Lys-Thr-Cys)-D-Tyr-NH2; F at 1 stands for p-Cl-Phe; surrogate of the Tc complex; also called [^natRe]Re-TECANT-2; Re-complex of TECANT-2; source: synthetic peptide (piChem), Re complex made with tetrabutylammonium-tetrachloro-oxo-rhenate (V)
IC50 [8]: 4.47 ± 0.89 nM

More lines, now with the values ahead:

internalization (internalized fraction) ([1]; 30 min): 4.4 ± 0.5%
internalization (internalized fraction) ([1]; 4 h): 11.7 ± 1.4%
cell surface binding ([1]; 4 h, % of total radioactivity added): 36.9 ± 8.5%
tissue uptake at 1 h [2, 9]: 1.64 ± 0.6 %ID/g
tissue uptake at 4 h [2, 9]: 0.26 ± 0.05 %ID/g
tissue uptake at 24 h [2, 9]: 0.05 ± 0.01 %ID/g
tissue uptake at 1 h [2, 10]: 5.38 ± 1.36 %ID/g
tissue uptake at 4 h [2, 10]: 3.72 ± 0.92 %ID/g
tissue uptake at 24 h [2, 10]: 1.07 ± 0.24 %ID/g
tissue uptake at 1 h [2, 11]: 17 ± 5.75 %ID/g
tissue uptake at 4 h [2, 11]: 2.52 ± 0.53 %ID/g
tissue uptake at 24 h [2, 11]: 0.3 ± 0.05 %ID/g
tissue uptake at 1 h [2, 12]: 16.4 ± 4.53 %ID/g
tissue uptake at 4 h [2, 12]: 1.96 ± 0.58 %ID/g
tissue uptake at 24 h [2, 12]: 0.12 ± 0.05 %ID/g
tissue uptake at 1 h [2, 13]: 1.61 ± 0.46 %ID/g
tissue uptake at 4 h [2, 13]: 0.55 ± 0.15 %ID/g
tissue uptake at 24 h [2, 13]: 0.24 ± 0.06 %ID/g
tissue uptake at 1 h [2, 14]: 5.14 ± 1.79 %ID/g
tissue uptake at 4 h [2, 14]: 1.25 ± 0.33 %ID/g
tissue uptake at 24 h [2, 14]: 0.73 ± 0.2 %ID/g
tissue uptake at 1 h [2, 15]: 1.8 ± 0.44 %ID/g
tissue uptake at 4 h [2, 15]: 0.23 ± 0.05 %ID/g
tissue uptake at 24 h [2, 15]: 0.03 ± 0.01 %ID/g
tissue uptake at 1 h [2, 16]: 1.67 ± 0.94 %ID/g
tissue uptake at 4 h [2, 16]: 0.41 ± 0.14 %ID/g
tissue uptake at 24 h [2, 16]: 0.2 ± 0.19 %ID/g
tissue uptake at 1 h [2, 17]: 19.1 ± 4.47 %ID/g
tissue uptake at 4 h [2, 17]: 28.4 ± 4.84 %ID/g
tissue uptake at 24 h [2, 17]: 11 ± 4.69 %ID/g
tissue uptake at 4 h ([2]; athymic nude-Foxn1nu/Foxn1+, Biodistribution HEK-SST2 (−) tumour uptake): 0.38 ± 0.13 %ID/g
tissue uptake at 1 h [2, 18]: 4.05 ± 1.12 %ID/g
tissue uptake at 4 h [2, 18]: 0.86 ± 0.4 %ID/g
tissue uptake at 24 h [2, 18]: 0.31 ± 0.17 %ID/g
tissue uptake at 1 h [2, 19]: 43.6 ± 11.4 %ID/g
tissue uptake at 4 h [2, 19]: 25.9 ± 5.23 %ID/g
tissue uptake at 24 h [2, 19]: 3.42 ± 1.44 %ID/g
tissue uptake at 1 h [2, 20]: 0.69 ± 0.22 %ID/g
tissue uptake at 4 h [2, 20]: 0.15 ± 0.04 %ID/g
tissue uptake at 24 h [2, 20]: 0.06 ± 0.03 %ID/g
tissue uptake at 1 h [2, 21]: 4.74 ± 1.5 %ID/g
tissue uptake at 4 h [2, 21]: 1.21 ± 0.86 %ID/g
tissue uptake at 24 h [2, 21]: 2.12 ± 1.36 %ID/g
tissue uptake at 1 h [2, 22]: 14.6 ± 4.89 %ID/g
tissue uptake at 4 h [2, 22]: 2.17 ± 0.39 %ID/g
tissue uptake at 24 h [2, 22]: 0.45 ± 0.08 %ID/g
logD [3]: -1.63 ± 0.16
Average total body dose [4]: 3.3 μGy/MBq
Dose Bone [4]: 4.0 μGy/MBq
Dose Muscle [4]: 2.6 μGy/MBq
Dose Red marrow [4]: 3.4 μGy/MBq
Dose Small intestine wall [4]: 1.9 μGy/MBq
biological half-life of clearance of remaining activity (rest of the body) to the bladder [4]: 13.3 h
effective dose [4]: 4.3 mSv
estimated dissociation half-life ([5]; absence of competitor): 40.3 min
total binding remaining (dissociation assay) ([5]; after 4 h, 37 °C, absence of competitor): 27.2 ± 6.3%
estimated dissociation half-life ([5]; presence of competitor): 7.5 min
bound fraction still remaining in the cells ([5]; presence of excess of the competitor, 37 °C): 1.1 ± 0.1%
Molecule: C[C@@H](O)[C@@H]1NC(=O)[C@H](CCCCN)NC(=O)[C@@H](Cc2c[nH]c3ccccc23)NC(=O)[C@H](Cc2ccc(O)cc2)NC(=O)[C@H](NC(=O)[C@H](Cc2ccc(Cl)cc2)NC(=O)C(CNCCN)CNCCN)CSSC[C@@H](C(=O)N[C@H](Cc2ccc(O)cc2)C(N)=O)NC1=O [[^99mTc]Tc-TECANT-2, metal not drawn]

estimated half-life of dissociation [6]: 7.5 min
estimated half-life of dissociation [7]: 40.3 min
B3: [^99mTc]Tc-TECANT-2 (peptide)
peptide: N4-[Phe(4-Cl)][dC]Y[dW]KTC[dY]-NH2
modifications: disulfide 2-7; also: N4 chelator holds 99mTc (dioxo-99mTc(V) complex)
notes: as TECANT-2: N4-p-Cl-Phe-cyclo(D-Cys-Tyr-D-Trp-Lys-Thr-Cys)-D-Tyr-NH2; F at 1 stands for p-Cl-Phe; also called ^99mTc-N4-SS01; source: synthetic peptide (piChem), labelled with ^99mTc, used without further purification

IC50 [8]: 5.01 ± 0.93 nM
B5: ^natRe-TECANT-1 (peptide)
peptide: N4-[Phe(4-Cl)][dC]Y[dPhe(4-NHCONH2)]KTC[dY]-NH2
modifications: disulfide 2-7; also: N4 chelator holds natural rhenium
notes: as TECANT-1: N4-p-Cl-Phe-cyclo(D-Cys-Tyr-D-Aph(Cbm)-Lys-Thr-Cys)-D-Tyr-NH2; F at 1 stands for p-Cl-Phe and F at 4 for D-Aph(Cbm); surrogate of the Tc complex; also called [^natRe]Re-TECANT-1; Re-complex of TECANT-1; source: synthetic peptide (piChem), Re complex made with tetrabutylammonium-tetrachloro-oxo-rhenate (V)

From PMC7824897, “Selection of the First ^99mTc-Labelled Somatostatin Receptor Subtype 2 Antagonist for Clinical Translation—Preclinical Assessment of Two Optimized Candidates” (Pharmaceuticals, 2020)
